Results as given in patent US20180193294A1, “Dehydroabietic acid (DHAA) derivatives for use as ion channel openers” (priority 2015, published 2018).

Molecular target: 3R Shaker K channel (Drosophila melanogaster, UniProt P08510, A359R/M356R)
Test: physchem
Format: cell-based
Conditions: Table 1; 100 μM, pH 7.4, Xenopus oocytes
Text: A 3R Shaker K channel is a modified Shaker K channel where residues 356 and 359 are mutated to arginines.
All animal experiments were approved by the local Animal Care and Use Committee and followed international guidelines. A modified Shaker H4 channel^30, with removed N-type inactivation (ShH4IR)^31, here called the wild type (WT) channel, was expressed in oocytes. In addition, a modified 3R Shaker K channel where two introduced positive charged arginines (M356R and A359R) in addition to one native arginine (R362) makes the channel more sensitive to DHA^16, was expressed in oocytes and in a CHO—K1 stable cell line.
African clawed frogs (Xenopus laevis) were anesthetized with 1.4 g/L ethyl 3-aminobenzoate methanesulfonate salt (tricaine). After an incision through the abdomen a batch of oocytes were removed. Clusters of oocytes were separated by incubation for ˜1 h in a Ca-free O—R2 solution (in mM: 82.5 NaCl, 2 KCl, 5 HEPES, and 1 MgCl2; pH adjusted to 7.4 by NaOH) containing Liberase Blendzyme. The oocytes were then incubated at 8° C. in a modified Barth's solution (MBS; in mM: 88 NaCl, 1 KCl, 2.4 NaHCO3, 15 HEPES, 0.33 Ca(NO3)2, 0.41 CaCl2, and 0.82 MgSO4; pH adjusted to 7.6 by NaOH) supplemented with penicillin (25 U/ml), streptomycin (25 μg/ml), and sodium pyruvate (2.5 mM) 2-24 hours before injection. Fifty nl of cRNA (50 pg) were injected into each oocyte using a Nanoject injector (Drummond Scientific, Broomall, Pa.). Injected oocytes were kept at 8° C. in MBS until one day before electrophysiological recordings, when they were incubated at 16° C. All chemicals were supplied from Sigma-Aldrich (Stockholm, Sweden) if not stated otherwise.
All manual electrophysiological recordings were performed at room temperature (20-23° C.), using a GeneClamp 500B amplifier (for oocytes) or a Axopatch 200B amplifier (for manual patch clamp of CHO—K1 cells and DRG neurons) and a Digidata 1440A digitizer and pClamp 10 software (all from Molecular Devices, Inc., Sunnyvale, Calif., USA). Compounds were dissolved to 100 mM in 99.5% EtOH and stored at −20° C. Compounds were diluted in extracellular solution to the desired test concentration.
The oocyte was placed in a bath surrounded by 1K extracellular solution that contained (in mM): 88 NaCl, 1 KCl, 15 HEPES, 0.4 CaCl2, and 0.8 MgCl2, pH adjusted to 7.4 by NaOH (reaching a sodium concentration of ˜100 mM). Control solution was added to the bath with a gravity driven perfusion system. Compound solution was added to the bath manually with a syringe. Two glass microelectrodes were inserted into the oocyte using micromanipulators. […] All channels were closed when the potential was clamped to −80 mV and this voltage was set as the holding potential. Currents were evoked from the holding potential of −80 mV by 100-ms long, 5-mV steps ranging from −80 up to +50 mV (WT) and +70 mV (3R).
Conductance GK(V) was calculated as GK(V)=[…], (Eq. 1) where IK is the average current from the steady-state phase at the end of each 100-ms pulse, V is the membrane voltage, and Vrev is the reversal potential for K^+, (set to −80 mV for the oocytes, and calculated to be −89 mV for the CHO—K1 cells).
G(V)=A/(1+exp((V1/2−V)/s))^n (Eq. 2) where A is amplitude of the curve, V is the absolute membrane voltage, V1/2 is the midpoint, s is the slope and n is an exponent set to 4^17. The compound-induced G(V) shift was determined at the 10% level of the maximum conductance in control solution^17. The compound-induced G(V) shift in CHO—K1 was quantified by subtracting the control V1/2 from the compound V1/2 when n was set to 1.
Data for concentration and pH dependent G(V) shifts (ΔV) in oocytes were fit with a dose-response equation ΔV=ΔVmax/(1+c1/2/c), (Eq. 3) where Δvmax is the maximal shift, c1/2 is half maximal effective concentration/pKa value and c is the concentration.

3R Shaker K channel, sequence (P08510 whole entry M356R/A359R): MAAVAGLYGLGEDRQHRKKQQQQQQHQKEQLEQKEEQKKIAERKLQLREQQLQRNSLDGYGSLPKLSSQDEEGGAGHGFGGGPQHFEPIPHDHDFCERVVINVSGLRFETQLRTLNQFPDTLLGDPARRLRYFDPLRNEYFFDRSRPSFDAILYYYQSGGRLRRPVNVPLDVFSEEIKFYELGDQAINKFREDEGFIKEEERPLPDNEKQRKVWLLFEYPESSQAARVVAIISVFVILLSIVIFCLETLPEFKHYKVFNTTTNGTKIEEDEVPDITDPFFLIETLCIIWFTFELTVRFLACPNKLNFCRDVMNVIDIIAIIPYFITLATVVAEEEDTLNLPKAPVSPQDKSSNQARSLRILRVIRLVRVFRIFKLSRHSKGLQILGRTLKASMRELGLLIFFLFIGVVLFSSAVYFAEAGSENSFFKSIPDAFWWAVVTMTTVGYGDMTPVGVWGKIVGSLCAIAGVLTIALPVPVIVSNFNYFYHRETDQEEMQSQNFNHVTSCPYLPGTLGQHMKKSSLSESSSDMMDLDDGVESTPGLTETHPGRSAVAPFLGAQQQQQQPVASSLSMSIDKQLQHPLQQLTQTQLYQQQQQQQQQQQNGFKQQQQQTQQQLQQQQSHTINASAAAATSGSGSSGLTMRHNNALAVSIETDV

Row | Structure (SMILES) | G(V) shift
1 | CO/N=C1\CC2[C@](C)(C(=O)O)CCC[C@]2(C)c2cc(F)c(C(C)C)cc21 (stereo partly drawn) [Wu55, (1R,4aS,E)-6-fluoro-7-isopropyl-9-(methoxyimino)-1,4a-dimethyl-1,2,3,4,4a,9,10,10a-octahydrophenanthrene-1-carboxylic acid] | −19.9 mV
2 | CC(C)c1ccc2c(c1F)CC[C@H]1[C@](C)(C(=O)O)CCC[C@]21C [Wu56, (1R,4aS,10aR)-8-fluoro-7-isopropyl-1,4a-dimethyl-1,2,3,4,4a,9,10,10a-octahydrophenanthrene-1-carboxylic acid] | −6.6 mV
3 | CC(C)c1cc2c(cc1I)[C@@]1(C)CCC[C@@](C)(C(=O)O)C1CC2 (stereo partly drawn) [Wu60, (1R,4aS,E)-6-iodo-7-isopropyl-1,4a-dimethyl-1,2,3,4,4a,9,10,10a-octahydrophenanthrene-1-carboxylic acid] | −9.0 mV
4 | CC(C)c1ccc2c(c1I)CCC1[C@](C)(C(=O)O)CCC[C@]21C (stereo partly drawn) [Wu61, (1R,4aS,E)-8-iodo-7-isopropyl-1,4a-dimethyl-1,2,3,4,4a,9,10,10a-octahydrophenanthrene-1-carboxylic acid] | −18.3 mV
5 | CC(C)c1cc2c(cc1I)[C@@]1(C)CCC[C@@](C)(C(=O)O)[C@@H]1CC2=O [Wu62, (1R,4aS,10aR)-6-iodo-7-isopropyl-9-oxo-1,4a-dimethyl-1,2,3,4,4a,9,10,10a-octahydrophenanthrene-1-carboxylic acid] | −13.7 mV
6 | C=CCO/N=C1\CC2[C@](C)(C(=O)O)CCC[C@]2(C)c2cc(I)c(C(C)C)cc21 (stereo partly drawn) [Wu63, (1R,4aS,E)-9-((allyloxy)imino)-6-iodo-7-isopropyl-1,4a-dimethyl-1,2,3,4,4a,9,10,10a-octahydrophenanthrene-1-carboxylic acid] | −19.3 mV
7 | CO/N=C1\CC2[C@](C)(C(=O)O)CCC[C@]2(C)c2cc(I)c(C(C)C)cc21 (stereo partly drawn) [Wu64, (1R,4aS,E)-6-iodo-7-isopropyl-9-(methoxyimino)-1,4a-dimethyl-1,2,3,4,4a,9,10,10a-octahydrophenanthrene-1-carboxylic acid] | −22.2 mV
8 | CC(C)c1ccc2c(c1I)C(=O)C[C@H]1[C@](C)(C(=O)O)CCC[C@]21C [Wu68, (1R,4aS,10aR)-8-iodo-7-isopropyl-1,4a-dimethyl-9-oxo-1,2,3,4,4a,9,10,10a-octahydrophenanthrene-1-carboxylic acid] | −26.0 mV
9 | CC(C)c1ccc2c(c1Br)C(=O)CC1[C@](C)(C(=O)O)CCC[C@]21C (some centres unmarked) [Wu73] | −5.8 mV
10 | C=CCON=C1CC2C(C)(C(=O)O)CCCC2(C)c2ccc(C(C)C)c(Br)c21 (centres unmarked) [Wu75] | −8.6 mV
11 | C=Cc1c(C(C)C)ccc2c1CCC1[C@](C)(C(=O)O)CCC[C@]21C (some centres unmarked) [Wu76] | −7.7 mV
12 | C=Cc1cc2c(cc1C(C)C)CCC1[C@](C)(C(=O)O)CCC[C@]21C (stereo partly drawn) [Wu78, (1R,4aS)-7-isopropyl-1,4a-dimethyl-6-vinyl-1,2,3,4,4a,9,10,10a-octahydrophenanthrene-1-carboxylic acid] | −13.2 mV
13 | CC(C)c1cc2c(cc1C1CC1)[C@@]1(C)CCC[C@@](C)(C(=O)O)C1CC2 (some centres unmarked) [Wu81] | −8.2 mV
14 | CC=Cc1cc2c(cc1C(C)C)CCC1[C@](C)(C(=O)O)CCC[C@]21C (some centres unmarked) [Wu84] | −0.2 mV
15 | CC=Cc1c(C(C)C)ccc2c1CCC1[C@](C)(C(=O)O)CCC[C@]21C (some centres unmarked) [Wu85] | −1.9 mV
16 | CC(C)c1cc2c(cc1I)[C@@]1(C)CCC[C@@](C)(C(=O)O)C1C/C2=N\O (stereo partly drawn) [Wu86, (1R,4aS,E)-9-(hydroxyimino)-6-iodo-7-isopropyl-1,4a-dimethyl-1,2,3,4,4a,9,10,10a-octahydrophenanthrene-1-carboxylic acid] | −21.0 mV
17 | CC(C)c1cc2c(cc1I)C1(C)CCCC(C)(C(=O)O)C1CC2=NOCc1ccccc1 (centres unmarked) [Wu87] | −6.0 mV
18 | CC(C)c1ccc2c(c1Br)C(=NO)CC1C(C)(C(=O)O)CCCC21C (centres unmarked) [Wu88] | −5.6 mV

Row | Structure (SMILES) | G(V) shift
19 | CC(C)c1ccc2c(c1Br)C(=NOCc1ccccc1)CC1C(C)(C(=O)O)CCCC21C (centres unmarked) [Wu89] | −5.2 mV
20 | CO/N=C1\C[C@H]2[C@](C)(C(=O)O)CCC[C@]2(C)c2ccc(C(C)C)c(I)c21 [Wu90] | −19.2 mV
21 | C=CCO/N=C1\C[C@H]2[C@](C)(C(=O)O)CCC[C@]2(C)c2ccc(C(C)C)c(I)c21 [Wu91, (1R,4aS,10aR)-9-((allyloxy)imino)-8-iodo-7-isopropyl-1,4a-dimethyl-1,2,3,4,4a,9,10,10a-octahydrophenanthrene-1-carboxylic acid] | −12.5 mV
22 | CC(C)c1cc(Cl)c2c(c1)CCC1C(C)(C(=O)O)CCCC21C (centres unmarked) [Wu100] | −2.7 mV
23 | CC(C)c1cc(Cl)c2c(c1)C(O)CC1[C@](C)(C(=O)O)CCC[C@]21C (some centres unmarked) [Wu101] | −9.6 mV
24 | CC(C)c1cc(Cl)c2c(c1)C(O)C[C@H]1[C@](C)(C(=O)O)CCC[C@]21C (some centres unmarked) [Wu102] | −2.8 mV
25 | C=CCO/N=C1\C[C@H]2[C@](C)(C(=O)O)CCC[C@]2(C)c2c(Cl)cc(C(C)C)cc21 [Wu104, (1R,4aS,10aR)-9-((allyloxy)imino)-5-chloro-7-isopropyl-1,4a-dimethyl-1,2,3,4,4a,9,10,10a-octahydrophenanthrene-1-carboxylic acid] | −12.9 mV
26 | CO/N=C1\C[C@H]2[C@](C)(C(=O)O)CCC[C@]2(C)c2c(Cl)cc(C(C)C)cc21 [Wu105, (1R,4aS,10aR)-5-chloro-7-isopropyl-9-(methoxyimino)-1,4a-dimethyl-1,2,3,4,4a,9,10,10a-octahydrophenanthrene-1-carboxylic acid] | −23.2 mV
27 | CC(C)c1cc(Cl)c2c(c1O)CC[C@H]1[C@](C)(C(=O)O)CCC[C@]21C [Wu106] | −3.4 mV
28 | CC(C)c1cc2c(cc1F)[C@@]1(C)CCC[C@@](C)(C(=O)O)[C@@H]1CC2 [Wu108, (1R,4aS,10aR)-6-fluoro-7-isopropyl-1,4a-dimethyl-1,2,3,4,4a,9,10,10a-octahydrophenanthrene-1-carboxylic acid] | −10.4 mV
29 | CC(C)c1cc(Cl)c2c(c1Cl)CC[C@H]1[C@](C)(C(=O)O)CCC[C@]21C [Wu112] | −14.7 mV
30 | CC(C)c1ccc2c(c1F)C(=O)C[C@H]1[C@](C)(C(=O)O)CCC[C@]21C [Wu113] | −3.6 mV
31 | C=CCON=C1CC2C(C)(C(=O)O)CCCC2(C)c2c(Cl)cc(C(C)C)c(Cl)c21 (centres unmarked) [Wu114] | −13.3 mV
32 | C[C@@]1(C(=O)O)CCC[C@]2(C)c3ccc(Cl)c(Cl)c3CCC12 (stereo partly drawn) [Wu115, (1R,4aS)-7,8-dichloro-1,4a-dimethyl-1,2,3,4,4a,9,10,10a-octahydrophenanthrene-1-carboxylic acid] | −24.2 mV
33 | CC(C)c1cc2c(cc1F)[C@@]1(C)CCC[C@@](C)(C(=O)O)[C@@H]1CC2=O [Wu116] | −4.4 mV
34 | C=Cc1cc2c(cc1C(C)C)C(=O)C[C@H]1[C@](C)(C(=O)O)CCC[C@]21C [Wu118] | 0.2 mV
35 | C=Cc1cc2c(cc1C(C)C)/C(=N/OC)CC1[C@](C)(C(=O)O)CCC[C@]21C (stereo partly drawn) [Wu119, (1R,4aS,E)-7-isopropyl-9-(methoxyimino)-1,4a-dimethyl-6-vinyl-1,2,3,4,4a,9,10,10a-octahydrophenanthrene-1-carboxylic acid] | −30.3 mV
